Test results published in patent US4868203A, “Bacterial substance and pharmaceutical composition thereof” (Kabushikikaisha Ueno Seiyaku Oyo Kenkyujo, priority 1986, dated 1989).
In brackets after ≈: the same amount, converted by molar mass. Several values for one entry are separate records, joined by “and”; a condition that tells them apart may be missing. Identical values can stand only once. Like-named read-outs stand apart in the source and are kept apart here.

Experiments:
[1] = system: Bacillus subtilis 6633; assay type: cell-based
Description: (§1) The minimum growth inhibitory concentration (MIC) values of bacterial substance UFC-N11 to various kinds of bacteria determined according to the conventional method were measured in the conventional manner.

[2] = system: Campylobacter fetus; assay type: cell-based
Description: as §1

[3] = system: Campylobacter jejuni; assay type: cell-based
Description: as §1

[4] = system: Corynebacterium michiganence PV michiganene NIAES 1044; assay type: cell-based; conditions: Corynebacterium michiganence NIAES 1044 (bacterial canker of tomatoes)
Description: as §1

[5] = system: Enterobacter cloacae IID977; assay type: cell-based
Description: as §1

[6] = system: Ervinia carotovara subsp. carotovora NIAES 1393; assay type: cell-based; conditions: Ervinia carotovara NIAES 1393 (black leg of potatoes)
Description: as §1

[7] = system: Escherichia coli NIHJ JC-2; assay type: cell-based
Description: as §1

[8] = system: Klebsiella pneumoniae; assay type: cell-based
Description: as §1

[9] = system: Proteus vulgaris OX-19; assay type: cell-based
Description: as §1

[10] = system: Pseudomonas aeruginosa; assay type: cell-based
Description: as §1

[11] = system: Pseudomonas syringae PV Mori NIAES 1020; assay type: cell-based; conditions: Pseudomonas syringae PV Mori NIAES 1020 (bacterial rugose)
Description: as §1

[12] = system: Pseudomonas syringae PV lachrymans NIAES 1316; assay type: cell-based; conditions: Pseudomonas syringae PV lachrymans NIAES 1316 (angular leaf spot of cucumber)
Description: as §1

[13] = system: Pseudomonas syringae PV tabaci NIAES 1075; assay type: cell-based
Description: as §1

[14] = system: Salmonella enteritidis 1891; assay type: cell-based
Description: as §1

[15] = system: Salmonella typhimurium; assay type: cell-based
Description: as §1

[16] = system: Staphylococcus aureus 209-P; assay type: cell-based
Description: as §1

[17] = system: Xandomonas campestris FV Pruni 7855SMR; assay type: cell-based; conditions: Xandomonas campestris FV Pruni 7855SMR (bacterial spot of peach)
Description: as §1

[18] = system: Xandomonas campestris PV campestris NIAES 1152; assay type: cell-based; conditions: Xandomonas campestris PV campestris NIAES 1152 (black rot)
Description: as §1

[19] = system: Aeromonas hydrophila IAM108; assay: Minimum growth inhibiting concentration, pathogenic bacteria of fish disease (Test Example 8); assay type: cell-based; conditions: Aeromonas hydrophila IAM108 (Aeromonas disease of carp)
Text: (§2) The minimum growth inhibitory concentrations (MIC) of the bacterial substance UFC-N11 against various bacteria were according to conventional procedure the results are as follows: […]

[20] = system: Aeromonas salmonicida, MC7503; assay: as above; assay type: cell-based; conditions: MC7503 (Furunculosis of salmonids)
Text: as §2

[21] = system: Edwardssiella tarda 4-1; assay: as above; assay type: cell-based; conditions: Edwardssiella tarda 4-1 (Edwardsiellosis of eel)
Text: as §2

[22] = system: Flexibacter columnaris V-II; assay: as above; assay type: cell-based; conditions: Flexibacter columnaris V-II (Columnaris disease of eel)
Text: as §2

[23] = system: Vibrio anguillarum 25-1; assay: as above; assay type: cell-based; conditions: Vibrio anguillarum 25-1 (Vibrio disease of sweetfish)
Text: as §2

[24] = system: Vibrio anguillarum K-3; assay: as above; assay type: cell-based; conditions: Vibrio anguillarum K-3 (Vibrio disease of young yellowtail)
Text: as §2

[25] = system: Pasteurella piscicida KGP86041; assay type: cell-based
[26] = system: Pasteurella piscicida; assay: microbe, parasite or virus in culture; assay type: cell-based
[27] = Preservability of potato salad (Test Example 6); conditions: for Living bacteria: at end of storage life
Description: Bacterial substance UFC-N11 was added to potato (300 g), carrot (50 g), sliced onion (60 g), sliced cucumber (80 g), salad oil (15 g), vinegar (12. 5 g), NaCl (2 g), pepper (0.05 g) and mayonnaise (100 g) (total: ca 620 g) to prepare potato salad. Test samples (20 g/group) were packed in 200 ml mayonnaise bottles, sealed and examined for the preservability at 30° C. Potato and carrot were boiled and cut into appropriate size before use. The period until emission of a putrid smell is defined as effective storage life. General living bacterial number of samples at that time was also measured.

[28] = system: Pasteurella piscicida DM-85 strain; design: species or system yellowtail; conditions: in vivo
[29] = system: Xanthomonas campestris PV citri; conditions: for Prevention: sprayed 24 hours after inoculation, 14 days
[30] = Solubility in various solvents
[31] = Storage life of kamaboko, rot-proof property (Test Example 4)
Description: Fish paste was prepared by adding NaCl (2.5%), chemical seasoning (0.8%), starch (5%) and ice water (10%) based on frozen surimi of walleye pollack (4 kg) and cutting by a silent cutter for 10 minutes. Predetermined amount of bacterial substance UFC-N11 based on the resulting fish paste (2 kg) was added and completely mixed in a small mixer for 5 minutes. About 100 g fish paste were enclosed with polyvinylidene chloride film (spread width:45 mm), boiled at 90° C. for 30 minutes, quenched, left overnight and then tested for rot-proof property.
The test was conducted as follows. As the complete package products, 10 pieces/group of kamaboko processed by casing method samples and, as the simplified package products, 10 pieces/group prepared by peeling off the casing under sterilized condition, cutting into 2 round slices (thickness: 10 mm) by a sterilized knife and placing in a sterilized plastic Petri dish. were placed in a thermostatic chamber at 30° C. and evaluated by macroscopically observation. The evaluation uses five-level scale shown below. The period until the average evaluation value of 1 is attained is defined as the storage life.

CC=CC=CC=CC(=O)NC(CC(=O)NC(C(=O)C1C(=O)NC(=O)C1C)C(C)C)c1ccccc1 (centres unmarked) [UFC-N11]
MIC [1]: 0.39 µg/mL (≈ 0.813 µM) | MIC [2]: 1.56 µg/mL (≈ 3.25 µM) | MIC [3]: 0.78 µg/mL (≈ 1.63 µM) | MIC [4]: 6.25 µg/mL (≈ 13 µM) | MIC [5]: 25 µg/mL (≈ 52.1 µM) | MIC [6]: 6.25 µg/mL (≈ 13 µM) | MIC [7]: 1.56 µg/mL (≈ 3.25 µM) | MIC [8]: 12.5 µg/mL (≈ 26.1 µM) | MIC [9]: 0.195 µg/mL (≈ 0.407 µM) | MIC [10]: 50 µg/mL (≈ 104 µM) | MIC [11]: 25 µg/mL (≈ 52.1 µM) | MIC [12]: 6.25 µg/mL (≈ 13 µM) | MIC [13]: 12.5 µg/mL (≈ 26.1 µM) | MIC [14]: 0.78 µg/mL (≈ 1.63 µM) | MIC [15]: 6.25 µg/mL (≈ 13 µM) | MIC [16]: 1.56 µg/mL (≈ 3.25 µM) | MIC [17]: 0.1 µg/mL (≈ 0.209 µM) | MIC [18]: 0.1 µg/mL (≈ 0.209 µM) | MIC [19]: 5.0 µg/mL (≈ 10.4 µM) | MIC [20]: 1.25 µg/mL (≈ 2.61 µM) | MIC [21]: 2.5 µg/mL (≈ 5.21 µM) | MIC [22]: 0.63 µg/mL (≈ 1.31 µM) | MIC [23]: 2.5 µg/mL (≈ 5.21 µM) | MIC [24]: 2.5 µg/mL (≈ 5.21 µM) | MIC [25]: 0.16 µg/mL (≈ 0.334 µM) | MIC [26]: 0.31 µg/mL and 0.16 µg/mL | antibacterial activity [26]: excellent antibacterial activity | Living bacteria ([27]; 0.05 ppm): 5.9e+06 g⁻¹ | Storage life ([27]; 0.05 ppm, pH 5.14, 30° C.): 24 h | Living bacteria ([27]; 0.5 ppm): 2.8e+07 g⁻¹ | Storage life ([27]; 0.5 ppm, pH 5.15, 30° C.): 30 h | Living bacteria ([27]; 5.0 ppm): 8.1e+06 g⁻¹ | Storage life ([27]; 5.0 ppm, pH 5.15, 30° C.): 43 h | Living bacteria ([27]; 50 ppm): 5.5e+07 g⁻¹ | Storage life ([27]; 50 ppm, pH 5.16, 30° C.): 56 h | therapeutic effect [28]: excellent therapeutic effect | Prevention ([29]; 20 ppm): 26.70% | Prevention ([29]; 40 ppm): 33.9% | Damage ([29]; in vivo): nil | Solubility in various solvents ([30]; n-hexane, chloroform, benzene and water): slightly soluble or insolbule | Solubility in various solvents ([30]; pyridine, acetic acid, dimethyl sulfoxide, methanol, ethanol, acetone, ethyl acetate and dimethyl ether): soluble | Storage life, Complete package ([31]; 0.01 ppm, pH 7.06, 30° C.): 5.0 days | Storage life, simplified package ([31]; 0.01 ppm, pH 7.06, 30° C.): 2.5 days | Storage life, Complete package ([31]; 0.1 ppm, pH 7.06, 30° C.): 7.0 days | Storage life, simplified package ([31]; 0.1 ppm, pH 7.06, 30° C.): 3.0 days | Storage life, Complete package ([31]; 1.0 ppm, pH 7.05, 30° C.): 9.0 days | Storage life, simplified package ([31]; 1.0 ppm, pH 7.05, 30° C.): 4.5 days | Storage life, Complete package ([31]; 10 ppm, pH 7.05, 30° C.): 14.0 days | Storage life, simplified package ([31]; 10 ppm, pH 7.05, 30° C.): 7.5 days | Storage life, Complete package ([31]; 50 ppm, pH 7.04, 30° C.): 18.0 days | Storage life, simplified package ([31]; 50 ppm, pH 7.04, 30° C.): 9.0 days | Storage life, Complete package ([31]; 100 ppm, pH 7.06, 30° C.): 24.0 days | Storage life, simplified package ([31]; 100 ppm, pH 7.06, 30° C.): 12.0 days
